Laboratory results taken from patent publication US5677329A, “Styryl-substituted monocyclic and bicyclic heteroaryl compounds which inhibit EGF receptor tyrosine kinase” (Rhone-Poulenc Rorer Pharmaceuticals, Inc., priority 1995, dated 1997).
Entries after “also recorded” stand apart in the source; their conditions may differ. Like-named read-outs stand apart in the source and are kept apart here.

How the values were obtained:
EGF receptor [1] = assay: ATP dependence of EGF-receptor autophosphorylation (10-s assay); assay type: biochemical; settings: 15° C., read-out: Km for ATP in EGFR autophosphorylation
Protocol: EGF-Receptor Purification
EGF-receptor purification is based on the procedure of Yarden and Schlessinger. A431 cells are grown in 80 cm^2 bottles to confluency (2×10^7 cells per bottle). The cells are washed twice with PBS and harvested with PBS containing 1.0 mmol EDTA (1 hour at 37° C.), and centrifuged at 600 g for 10 minutes. The cells are solubilized in 1 ml per 2×10^7 cells of cold solubilization buffer (50 mmol Hepes buffer, pH 7.6, 1% Triton X-100, 150 mmol NaCl, 5 mmol EGTA, 1 mmol PMSF, 50 μg/ml aprotinin, 25 mmol benzamidine, 5 μg/ml leupeptic, and 10 μg/ml soybean trypsin inhibitor) for 20 minutes at 4° C. After centrifugation at 100000 g for 30 minutes, the supernatant is loaded onto a WGA-agarose column (100 μl of packed resin per 2×10^7 cells) and shaken for 2 hours at 4° C. The unabsorbed material is removed and the resin washed twice with HTN buffer (50 mmol Hepes, pH 7.6, 0.1% Triton X-100, 150 mmol NaCl), twice with HTN buffer containing 1M NaCl, and twice with HTNG buffer (50 mmol Hepes, pH 7.6, 0.1% Triton X-100, 150 mmol NaCl, and 10% glycerol). The EGF receptor is eluted batchwise with HTNG buffer containing 0.5M N-acetyl-D-glucosamine (200 μl per 2×10^7 cells). The eluted material is stored in aliquots at -70° C. and diluted before use with TMTNG buffer (50 mmol Tris-Mes buffer, pH 7.6, 0.1% Triton X-100, 150 mmol NaCl, 10% glycerol).

[2] = tested on: DNA synthesis in PDGF-stimulated cells; assay: Inhibition of cell proliferation as measured by inhibition of DNA synthesis ([3H]thymidine incorporation), PDGF-stimulated cells; assay type: cell-based; settings: Table IV; PDGF stimulation; [3H]thymidine incorporation halved
Protocol: (§1) Inhibition of Cell Proliferation as Measured by Inhibition of DNA Synthesis Cells were seeded at 1×10^5 cells per well in 24-well Costar dishes pre-coated with human fibronectin (by incubating for 30 minutes at room temperature with 10 μg/0.5 ml/well). The cells were grown to confluence for 2 days. The medium was changed to DMEM containing […] for 36-48 hours and the cells were then incubated with PDGF, EGF (Toyobo, New York, N.Y.) (20 ng/ml) or serum (10% calf serum, FCS) and different concentrations of the inhibitory compounds. [^3 H]thymidine,(NEN, Boston, Mass.) was added 16-24 hours later at 0.5 μCi/ml for 2 hours. TCA precipitable material was quantitated by scintillation counting (C).

EGFR = biological target: T1, EGFR (Homo sapiens, UniProt P00533); assay: Inhibition of EGFR autophosphorylation (anti-EGF-R immunoprecipitate from A431 cells, EGF stimulation); assay type: biochemical; settings: for Relative inhibition of EGF receptor kinase, in words: comparison from Table V
T1 construct: endogenous in cells; host or cells: A431 cells (detergent lysate, anti-EGF-R Ab 108 immunoprecipitate)
Protocol: Inhibition of EGFR Autophosphorylation A431 cells were grown to confluence on human fibronectin coated tissue culture dishes. […] The reaction was stopped by adding hot electrophoresis sample buffer. […] "IC50," as used below, refers to the concentration of inhibitor (μM) at which the rate of autophosphorylation is halved, compared with media containing no inhibitor. […] The EGFR autophosphorylation inhibition was evaluated using the same procedure as described hereinbefore.

[3] = tested on: DNA synthesis in serum (FCS)-stimulated cells; assay: Inhibition of cell proliferation as measured by inhibition of DNA synthesis ([3H]thymidine incorporation), serum (10% FCS)-stimulated cells; assay type: cell-based; settings: 10% calf serum (FCS); for inhibition at 1 µM: read-out: Inhibition of [3H]thymidine incorporation, FCS (printed in the IC50 - FCS column); for IC50: Table IV, [3H]thymidine incorporation halved
Protocol: as §1

PDGF receptor kinase = assay: Inhibition of autophosphorylation, procedure repeated with PDGF stimulation; assay type: biochemical; settings: Table III
EGF receptor [4] = settings: membranes of A431 cells; cited from earlier work
[5] = tested on: cyclic adenosine 3', 5'-monophosphate (cAMP)-dependent protein kinase; settings: compared with EGF receptor autophosphorylation; cited from earlier work
other protein kinases = settings: cited from earlier work
[6] = Table III, EGF stimulation, autophosphorylation 2 min at 4° C., read-out: IC50 EGF
[7] = Table V, comparison with prior art compound C-1, same procedure as before, read-out: IC50, inhibition of EGFR autophosphorylation (Table V)

T1 sequence (P00533 25-1210): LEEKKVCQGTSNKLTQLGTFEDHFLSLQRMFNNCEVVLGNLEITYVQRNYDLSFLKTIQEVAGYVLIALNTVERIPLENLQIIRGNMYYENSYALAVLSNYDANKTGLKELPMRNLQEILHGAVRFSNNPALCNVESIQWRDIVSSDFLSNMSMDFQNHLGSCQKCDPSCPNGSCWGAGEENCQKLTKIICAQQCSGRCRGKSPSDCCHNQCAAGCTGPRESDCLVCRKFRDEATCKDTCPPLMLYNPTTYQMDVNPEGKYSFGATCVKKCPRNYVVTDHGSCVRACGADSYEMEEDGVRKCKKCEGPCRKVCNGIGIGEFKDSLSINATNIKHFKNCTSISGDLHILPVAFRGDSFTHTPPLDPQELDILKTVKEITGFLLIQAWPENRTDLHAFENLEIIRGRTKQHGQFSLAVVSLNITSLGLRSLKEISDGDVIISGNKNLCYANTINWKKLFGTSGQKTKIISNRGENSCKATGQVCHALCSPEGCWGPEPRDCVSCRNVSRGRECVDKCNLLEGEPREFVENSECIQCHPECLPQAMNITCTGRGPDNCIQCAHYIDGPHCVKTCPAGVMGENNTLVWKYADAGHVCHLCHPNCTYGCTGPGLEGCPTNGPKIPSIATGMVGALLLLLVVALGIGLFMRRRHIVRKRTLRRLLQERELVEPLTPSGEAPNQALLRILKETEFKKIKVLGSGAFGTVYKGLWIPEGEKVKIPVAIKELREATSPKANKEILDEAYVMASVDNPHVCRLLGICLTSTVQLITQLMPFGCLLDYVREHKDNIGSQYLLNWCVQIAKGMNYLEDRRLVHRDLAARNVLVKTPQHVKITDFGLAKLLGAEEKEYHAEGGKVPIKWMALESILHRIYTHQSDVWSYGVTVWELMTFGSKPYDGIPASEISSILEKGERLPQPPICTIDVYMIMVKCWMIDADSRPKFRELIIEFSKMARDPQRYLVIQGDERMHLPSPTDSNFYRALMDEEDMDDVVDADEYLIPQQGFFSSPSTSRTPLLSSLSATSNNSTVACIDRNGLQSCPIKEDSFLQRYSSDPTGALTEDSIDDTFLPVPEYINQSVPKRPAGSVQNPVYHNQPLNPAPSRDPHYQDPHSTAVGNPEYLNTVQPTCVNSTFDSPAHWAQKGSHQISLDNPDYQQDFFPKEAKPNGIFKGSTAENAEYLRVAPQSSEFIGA

With `Nc1ncnc2c1ncn2[C@@H]1O[C@H](COP(=O)(O)OP(=O)(O)OP(=O)(O)O)[C@@H](O)[C@H]1O` [ATP, adenosine triphosphate] the Km (EGF receptor [1]) was 7.2 µM.

`COc1ccc(C=C(C#N)c2cn(S(=O)(=O)c3ccc([N+](=O)[O-])cc3)c3ccccc23)cc1OC` [Example 6, 2-[1-(4-Nitrophenylsulfonyl)indol-3-yl]-3-(3,4-dimethoxyphenyl)-2-propenenitrile] showed an IC50 [2] of 17 nM, an IC50 (EGFR; [6]) of 20000 nM and an inhibition at 1 µM [3] of 15%. It also gave an IC50 (PDGF receptor kinase) of over 50 µM.

`COc1ccc(C=C(C#N)c2cccnc2)cc1OC` [Example 7, 2-(3-Pyridyl)-3-(3,4-dimethoxyphenyl)-2-propenenitrile] showed an IC50 (EGFR; [6]) of 400 nM and an IC50 (PDGF receptor kinase) of 30 µM.

With `N#C/C(=C\c1cc(Cl)cc(Cl)c1)c1cccnc1` [Example 1A, trans-2-(3-Pyridyl)-3-(3,5-dichlorophenyl)-2-propenenitrile] the IC50 (EGFR; [7]) was 2000 nM, the “Relative inhibition of EGF receptor kinase, in words” value (EGFR) was “more potent inhibitor of EGF receptor kinase than C-1” and the “Relative inhibition of EGF receptor kinase, in words” value (EGFR; listed as 1-A) was “much better activity than that of its corresponding N-oxide”.

`COc1ccc(C=C(C#N)c2ccccn2)cc1OC` [Example 3, 2-(2-Pyridyl)-3-(3,4-dimethoxyphenyl)-2-propenenitrile] gave an IC50 [2] of 14 ± 10 nM, an IC50 (EGFR; [6]) of 500 nM and an inhibition at 1 µM [3] of 27 ± 5%. It also gave an IC50 (PDGF receptor kinase) of 6 µM.

In the case of `O=CN/C=C/c1cc(O)ccc1O` [erbstatin], the “Inhibition of EGF receptor autophosphorylation, in words” value (EGF receptor [4]) is given as “inhibits the autophosphorylation of the EGF receptor; also recorded: Low concentrations of erbstatin are required to inhibit EGF receptor autophosphorylation” and the “Concentrations required to inhibit cAMP-dependent protein kinase, in words” value [5] is given as “much higher concentrations of erbstatin are required”.

`N#C/C(=C\c1cc(Cl)cc(Cl)c1)c1ccc[n+]([O-])c1` [Example 2, trans-2-(3-pyridyl)-3-(3,5-dichlorophenyl)-2-propenenitrile, N-oxide] showed an IC50 [2] of 30 ± 17 nM, an IC50 (EGFR; [6]) of 100 nM and an IC50 (EGFR; [7]) of at least 50000 nM. It also gave an IC50 [3] of 100 nM and an IC50 (PDGF receptor kinase) of 20 µM.

Molecule `CC(C)(C)c1cc(C=C(C#N)c2ccccn2)cc(C(C)(C)C)c1` [Example 4, 2-(2-Pyridyl)-3-(3,5-di-tert-butylphenyl)-2-propenenitrile] has an IC50 [2] of 9 ± 2 nM and an IC50 [3] of 500 nM.

With `COc1ccc(C=C(C#N)c2c[nH]c3ccccc23)cc1OC` [Example 5, 2-(3-Indolyl)-3-(3,4-dimethoxyphenyl)-2-propenenitrile] the IC50 (EGFR; [6]) was 400 nM and the IC50 (PDGF receptor kinase) was 10 µM.

In the case of `O=c1c(O)c(-c2ccc(O)c(O)c2)oc2cc(O)cc(O)c12` [quercetin], the “Competition with ATP; inhibition of other protein kinases, in words” value (other protein kinases) is listed as “compete with ATP, inhibit other protein kinases”.

In the case of `O=c1c(-c2ccc(O)cc2)coc2cc(O)cc(O)c12` [genistein], the “Competition with ATP; inhibition of other protein kinases, in words” value (other protein kinases) is given as “compete with ATP, inhibit other protein kinases”.

With `N#CC(=Cc1ccc(Cl)cc1Cl)c1cccnc1` [Example C-1, 2-(3-pyridyl)-3-(2,4-dichlorophenyl)-2-propenenitrile, reference compound] the IC50 (EGFR; [7]) was at least 50000 nM.
